# Patent US20230295260A1, “GLP RECEPTOR AGONISTS” (HEPTARES THERAPEUTICS LIMITED, priority 2020, published 2023)
# Non-standard residues stand in square brackets, D forms with d. Residues, ends and D or L forms follow the SMILES beside them. *: point of attachment. Malonyl(2,2-Me2,histaminyl) = CC(C)(C(=O)NCCc1cnc[nH]1)C(=O)*; Ala(1H-tetrazol-5-yl) = N[C@@H](Cc1nnn[nH]1)C(=O)O; αMeF = C[C@](N)(Cc1ccccc1)C(=O)O; Nle = CCCC[C@H](N)C(=O)O; Aib = CC(C)(N)C(=O)O; Alloc = C=CCOC(=O)*
# Tests used:
# [1] = target: T1, human GLP1 receptor (Homo sapiens, UniProt P43220); assay: cAMP accumulation assay (HTRF), functional agonism of human GLP1 receptor in HEK cells; format: cell-based; details: HEK cells, human GLP1 receptor BacMam, 45 min 37° C.; for Emax: HEK293, read-out: Human GLP-1R agonist cAMP Emax; for EC50: read-out: Human GLP-1R agonist cAMP pEC50 (converted)
# T1 construct: expressed in transfected cells; host or cells: HEK cells, BacMam virus transduction
# [2] = target: T2, human GLP2 receptor (Homo sapiens, UniProt O95838); assay: cAMP accumulation assay (HTRF), functional agonism of human GLP2 receptor in HEK cells; details: for Emax: HEK293, read-out: Human GLP-2R agonist cAMP Emax;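 as to all read-outs here: HEK cells transduced via BacMam to express human GLP2 receptor, agonist-stimulated cAMP measured by HTRF after 45 min at 37 °C in HBSS with 0.5 mM IBMX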
# T2 sequence (O95838 1-553): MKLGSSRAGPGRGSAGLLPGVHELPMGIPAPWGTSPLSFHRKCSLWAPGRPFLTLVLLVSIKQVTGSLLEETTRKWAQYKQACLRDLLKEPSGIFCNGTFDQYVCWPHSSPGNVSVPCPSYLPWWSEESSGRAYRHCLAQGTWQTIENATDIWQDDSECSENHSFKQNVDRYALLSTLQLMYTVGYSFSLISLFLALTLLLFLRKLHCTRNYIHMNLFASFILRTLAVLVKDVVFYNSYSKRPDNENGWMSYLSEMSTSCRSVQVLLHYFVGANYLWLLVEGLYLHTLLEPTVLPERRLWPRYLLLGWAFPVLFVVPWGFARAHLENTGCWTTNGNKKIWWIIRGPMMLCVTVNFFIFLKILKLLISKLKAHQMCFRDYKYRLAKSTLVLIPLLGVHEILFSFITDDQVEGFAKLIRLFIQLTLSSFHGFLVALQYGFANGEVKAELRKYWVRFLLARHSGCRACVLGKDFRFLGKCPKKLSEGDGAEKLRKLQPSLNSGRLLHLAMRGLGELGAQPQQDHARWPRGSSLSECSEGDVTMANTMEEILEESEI
# T1 sequence (P43220 24-463): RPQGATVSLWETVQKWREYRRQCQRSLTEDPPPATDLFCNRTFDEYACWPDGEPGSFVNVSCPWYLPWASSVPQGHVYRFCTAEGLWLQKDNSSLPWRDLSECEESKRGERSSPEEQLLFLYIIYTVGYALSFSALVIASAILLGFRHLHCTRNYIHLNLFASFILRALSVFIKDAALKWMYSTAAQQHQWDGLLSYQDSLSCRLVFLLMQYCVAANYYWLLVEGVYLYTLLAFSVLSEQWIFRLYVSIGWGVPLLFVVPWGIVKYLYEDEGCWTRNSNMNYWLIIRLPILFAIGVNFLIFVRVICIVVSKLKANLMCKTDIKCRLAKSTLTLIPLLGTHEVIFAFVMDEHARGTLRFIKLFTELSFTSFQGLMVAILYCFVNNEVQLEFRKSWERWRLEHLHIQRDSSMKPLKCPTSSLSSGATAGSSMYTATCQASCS
compound,measurement,setting,value
"C=CCOC(=O)NCCCC[C@H](NC(=O)[C@H](CC(C)C)NC(=O)[C@H](CC(=O)O)NC(=O)[C@H](CC(C)C)NC(=O)[C@@H](NC(=O)[C@@H](NC(=O)[C@@H](Cc1ccccc1)NC(=O)[C@H](CCCC)NC(=O)[C@H](CCC(=O)O)NC(=O)[C@H](CC(=O)O)NC(=O)[C@H](CO)NC(=O)[C@H](Cc1ccccc1)NC(=O)[C@H](CO)NC(=O)CNC(=O)[C@H](Cc1nn[nH]n1)NC(=O)C(C)(C)C(=O)NCCc1c[nH]cn1)[C@@H](C)O)[C@@H](C)CC)C(=O)N[C@@H](C)C(=O)N[C@@H](C)C(=O)NC(C)(C)C(=O)N[C@@H](CC(=O)O)C(=O)N[C@@H](Cc1ccccc1)C(=O)N[C@H](C(=O)N[C@@H](CC(N)=O)C(=O)N[C@@H](Cc1c[nH]c2ccccc12)C(=O)N[C@@H](CC(C)C)C(=O)N[C@H](C(=O)N[C@@H](CCC(N)=O)C(=O)N[C@H](C(=O)N[C@@H](CCCCN)C(=O)N[C@H](C(=O)N[C@H](C(=O)N[C@@H](Cc1ccccc1)C(N)=O)[C@@H](C)O)[C@@H](C)CC)[C@@H](C)O)[C@@H](C)CC)[C@@H](C)CC [Example 9] ({Malonyl(2,2-Me2,histaminyl)}-[Ala(1H-tetrazol-5-yl)]GSFSDE[Nle][dF]TILDLK(Alloc)AA[Aib]DFINWLIQTKITF-NH2)",Emax,[1],94.1%
same,EC50,[1],20 nM
same,EC50,[2],0.0126 nM
same,Emax,[2],102%
"C=CCOC(=O)NCCCC[C@H](NC(=O)[C@H](CC(C)C)NC(=O)[C@H](CC(=O)O)NC(=O)[C@H](CC(C)C)NC(=O)[C@@H](NC(=O)[C@@H](NC(=O)[C@@H](Cc1ccccc1)NC(=O)[C@H](CCCC)NC(=O)[C@H](CCC(=O)O)NC(=O)[C@H](CC(=O)O)NC(=O)[C@H](CO)NC(=O)[C@](C)(Cc1ccccc1)NC(=O)[C@H](CO)NC(=O)CNC(=O)[C@H](Cc1nn[nH]n1)NC(=O)C(C)(C)C(=O)NCCc1c[nH]cn1)[C@@H](C)O)[C@@H](C)CC)C(=O)N[C@@H](C)C(=O)N[C@@H](C)C(=O)N[C@@H](CCCCN)C(=O)N[C@@H](CC(=O)O)C(=O)N[C@@H](Cc1ccccc1)C(=O)N[C@H](C(=O)N[C@@H](CC(N)=O)C(=O)N[C@@H](Cc1c[nH]c2ccccc12)C(=O)N[C@@H](CC(C)C)C(=O)N[C@H](C(=O)N[C@@H](CCC(N)=O)C(=O)N[C@H](C(=O)N[C@@H](CCCCN)C(=O)N[C@H](C(=O)N[C@H](C(=O)N[C@@H](CC(=O)O)C(N)=O)[C@@H](C)O)[C@@H](C)CC)[C@@H](C)O)[C@@H](C)CC)[C@@H](C)CC [Example 10] ({Malonyl(2,2-Me2,histaminyl)}-[Ala(1H-tetrazol-5-yl)]GS[αMeF]SDE[Nle][dF]TILDLK(Alloc)AAKDFINWLIQTKITD-NH2)",Emax,[1],96.4%
same,EC50,[1],0.1 nM
same,EC50,[2],0.01 nM
same,Emax,[2],101%
"C=CCOC(=O)NCCCC[C@H](NC(=O)[C@H](CC(C)C)NC(=O)[C@H](CC(=O)O)NC(=O)[C@H](CC(C)C)NC(=O)[C@@H](NC(=O)[C@@H](NC(=O)[C@@H](Cc1ccccc1)NC(=O)[C@H](CCCC)NC(=O)[C@H](CCC(=O)O)NC(=O)[C@H](CC(=O)O)NC(=O)[C@H](CO)NC(=O)[C@](C)(Cc1ccccc1)NC(=O)[C@H](CO)NC(=O)[C@@H](C)NC(=O)[C@H](Cc1nn[nH]n1)NC(=O)C(C)(C)C(=O)NCCc1c[nH]cn1)[C@@H](C)O)[C@@H](C)CC)C(=O)NC(C)(C)C(=O)N[C@@H](C)C(=O)N[C@@H](CCCCN)C(=O)N[C@@H](CC(=O)O)C(=O)N[C@@H](Cc1ccccc1)C(=O)N[C@H](C(=O)N[C@@H](CC(N)=O)C(=O)N[C@@H](Cc1c[nH]c2ccccc12)C(=O)N[C@@H](CC(C)C)C(=O)N[C@H](C(=O)N[C@@H](CCC(N)=O)C(=O)N[C@H](C(=O)N[C@@H](CCCCN)C(=O)N[C@H](C(=O)N[C@H](C(=O)N[C@@H](CC(=O)O)C(N)=O)[C@@H](C)O)[C@@H](C)CC)[C@@H](C)O)[C@@H](C)CC)[C@@H](C)CC [Example 11] ({Malonyl(2,2-Me2,histaminyl)}-[Ala(1H-tetrazol-5-yl)][dA]S[αMeF]SDE[Nle][dF]TILDLK(Alloc)[Aib]AKDFINWLIQTKITD-NH2)",Emax,[1],95.4%
same,EC50,[1],1.58 nM
same,EC50,[2],0.0126 nM
same,Emax,[2],102%
"C=CCOC(=O)NCCCC[C@H](NC(=O)[C@H](C)NC(=O)[C@H](C)NC(=O)[C@H](CCCCNC(=O)OCC=C)NC(=O)[C@H](CC(C)C)NC(=O)[C@H](CC(=O)O)NC(=O)[C@H](CC(C)C)NC(=O)[C@@H](NC(=O)[C@@H](NC(=O)[C@@H](Cc1ccccc1)NC(=O)[C@H](CCCC)NC(=O)[C@H](CCC(=O)O)NC(=O)[C@H](CC(=O)O)NC(=O)[C@H](CO)NC(=O)[C@H](Cc1ccccc1)NC(=O)[C@H](CO)NC(=O)CNC(=O)[C@H](Cc1nn[nH]n1)NC(=O)C(C)(C)C(=O)NCCc1c[nH]cn1)[C@@H](C)O)[C@@H](C)CC)C(=O)N[C@@H](CC(=O)O)C(=O)N[C@@H](Cc1ccccc1)C(=O)N[C@H](C(=O)N[C@@H](CC(N)=O)C(=O)N[C@@H](Cc1c[nH]c2ccccc12)C(=O)N[C@@H](CC(C)C)C(=O)N[C@H](C(=O)N[C@@H](CCC(N)=O)C(=O)N[C@H](C(=O)N[C@@H](CCCCN)C(=O)N[C@H](C(=O)N[C@H](C(=O)N[C@@H](CC(=O)O)C(N)=O)[C@@H](C)O)[C@@H](C)CC)[C@@H](C)O)[C@@H](C)CC)[C@@H](C)CC [Example 14] ({Malonyl(2,2-Me2,histaminyl)}-[Ala(1H-tetrazol-5-yl)]GSFSDE[Nle][dF]TILDLK(Alloc)AAK(Alloc)DFINWLIQTKITD-NH2)",Emax,[1],96.1%
same,EC50,[1],12.6 nM
same,EC50,[2],0.01 nM
same,Emax,[2],101%
"C=CCOC(=O)NCCCC[C@H](NC(=O)[C@H](C)NC(=O)C(C)(C)NC(=O)[C@H](CCCCNC(=O)OCC=C)NC(=O)[C@H](CC(C)C)NC(=O)[C@H](CC(=O)O)NC(=O)[C@H](CC(C)C)NC(=O)C(C)(C)NC(=O)[C@@H](NC(=O)[C@@H](Cc1ccccc1)NC(=O)[C@H](CCCC)NC(=O)[C@H](CCC(=O)O)NC(=O)[C@H](CC(=O)O)NC(=O)[C@H](CO)NC(=O)[C@H](Cc1ccccc1)NC(=O)[C@H](CO)NC(=O)CNC(=O)[C@H](Cc1nn[nH]n1)NC(=O)C(C)(C)C(=O)NCCc1c[nH]cn1)[C@@H](C)O)C(=O)N[C@@H](CC(=O)O)C(=O)N[C@@H](Cc1ccccc1)C(=O)N[C@H](C(=O)N[C@@H](CC(N)=O)C(=O)N[C@@H](Cc1c[nH]c2ccccc12)C(=O)N[C@@H](CC(C)C)C(=O)N[C@H](C(=O)N[C@@H](CCC(N)=O)C(=O)N[C@H](C(=O)N[C@@H](CCCCN)C(=O)N[C@H](C(=O)N[C@H](C(=O)N[C@@H](CC(=O)O)C(N)=O)[C@@H](C)O)[C@@H](C)CC)[C@@H](C)O)[C@@H](C)CC)[C@@H](C)CC [Example 16] ({Malonyl(2,2-Me2,histaminyl)}-[Ala(1H-tetrazol-5-yl)]GSFSDE[Nle][dF]T[Aib]LDLK(Alloc)[Aib]AK(Alloc)DFINWLIQTKITD-NH2)",Emax,[1],96%
same,EC50,[1],15.8 nM
same,EC50,[2],0.01 nM
same,Emax,[2],102%
"C=CCOC(=O)NCCCC[C@H](NC(=O)[C@H](CC(C)C)NC(=O)[C@H](CC(=O)O)NC(=O)[C@H](CC(C)C)NC(=O)[C@@H](NC(=O)[C@@H](NC(=O)[C@@H](Cc1ccccc1)NC(=O)[C@H](CCCC)NC(=O)[C@H](CCC(=O)O)NC(=O)[C@H](CC(=O)O)NC(=O)[C@H](CO)NC(=O)[C@H](Cc1ccccc1)NC(=O)[C@H](CO)NC(=O)CNC(=O)[C@H](Cc1nn[nH]n1)NC(=O)C(C)(C)C(=O)NCCc1c[nH]cn1)[C@@H](C)O)[C@@H](C)CC)C(=O)NC(C)(C)C(=O)N[C@@H](C)C(=O)N[C@@H](CCCCN)C(=O)N[C@@H](CC(=O)O)C(=O)N[C@@H](Cc1ccccc1)C(=O)N[C@H](C(=O)N[C@@H](CC(N)=O)C(=O)N[C@@H](Cc1c[nH]c2ccccc12)C(=O)N[C@@H](CC(C)C)C(=O)N[C@H](C(=O)N[C@@H](CCC(N)=O)C(=O)N[C@H](C(=O)N[C@@H](CCCCN)C(=O)N[C@H](C(=O)N[C@H](C(=O)N[C@@H](CC(=O)O)C(N)=O)[C@@H](C)O)[C@@H](C)CC)[C@@H](C)O)[C@@H](C)CC)[C@@H](C)CC [Example 18] ({Malonyl(2,2-Me2,histaminyl)}-[Ala(1H-tetrazol-5-yl)]GSFSDE[Nle][dF]TILDLK(Alloc)[Aib]AKDFINWLIQTKITD-NH2)",Emax,[1],94%
same,EC50,[1],6.31 nM
same,EC50,[2],0.01 nM
same,Emax,[2],102%
